This note sets out measurements from patent US20070073039A1, “Peptides that inhibit viral infections” (priority 2005, published 2007).

Read-outs that look alike come from different tables or passages of the source.

The subject of data set [1] is HCV. Briefly: HCV focus reduction assay. The data set is classed as cell-based, Hepatitis C virus (JFH-1). The note with it: 72 h; working concentration 18.4-27.5 μM per peptide; Mock 51. The method, boiled down:
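Huh-7.5.1 cells infected with 50 ffu HCV premixed with peptide (~20 μM screen; derivatives at 18, 6 and 2 μM), 4 h adsorption at 37 °C, then washed and cultured 3 days. Foci immunostained for NS5A and counted by fluorescence microscopy. Values are % of mock with 0.5% DMSO solvent.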

The subject of data set [2] is HCV. The data set is described as follows: Intracellular HCV RNA by real time RT-QPCR after infection of Huh-7.5.1 cells with and without peptide. The data set is classed as cell-based, Hepatitis C virus (JFH-1). Particulars: working concentration 18.4-27.5 μM per peptide. The method, then:
To accurately quantify the inhibitory effect of the selected peptides on HCV infection, intracellular HCV RNA was measured after infection by real time RT-QPCR with and without peptide treatment. The peptide stock solution was diluted 1:100 and mixed with equal volume of viral supernatant (propagated from day 18 virus preparation post transfection) to a final concentration approximately 20 μM. The virus with peptide or 0.5% DMSO solvent control was then used to infect Huh-7.5.1 cells at a multiplicity of infection (MOI) of 0.1. After an adsorption for 4 hours at 37° C., the inoculum was removed. The cells were washed 2 times, overlaid with 120 μL fresh growth medium and incubated at 37° C. At the indicated time points, total cellular RNA was isolated by the guanidine thiocyanate method. The HCV RNA transcript level was measured by real time RT-QPCR with the primers 5′—
normalized to cellular GAPDH levels.
To define the antiviral action of peptide #1 (SEQ ID NO:43), the antiviral activity of a series of N-terminal and C-terminal truncations of peptide 1 was analyzed using the focus reduction assay and by measuring the reduction in intracellular HCV RNA as described.

For data set [3], the system named is Dengue-2. Briefly: Dengue-2 infection of Vero cells, Enzyme-linked Immunosorbent Assay. The data set is classed as cell-based. The note with it: for Inhibition of Dengue Infection, α-Capsid 9A7 / Inhibition of Dengue Infection, α-DEN ENV: Vero cells, 5 days. Here is the method: Enzyme-linked Immunosorbent Assay. Vero cells (80,000 cells/well/ml) were seeded for 24 h pre-infection in 24-well plates. Cells were exposed to Dengue-2 (derived from Vero cells) in the presence of increasing concentration of peptide (or DMSO as control). Viruses and peptide were not removed (cells were not washed) throughout the incubation. Infection was analyzed after 5 days using ELISA that measured the amounts of Dengue-2 capsid released in the supernatant of infected Vero cells.

Data set [4] relates to Dengue-2. Briefly: Dengue-2 infection of Vero cells, Intracellular FACS Assay. The class given is cell-based. The note with it: 20 μM. The method, then: Intracellular FACS Assay: Vero cells were seeded for 24 h pre-infection in 6-well plates. Cells were exposed to Dengue-2 in the presence of increasing concentrations of peptide (or DMSO as control). Viruses and peptide were washed away 2 h post-infection. Cells were taken for intracellular staining 3 days post-infection. Cells were stained with appropriate isotype control, Dengue Env, Dengue capsid or tubulin antibodies. Cells were analyzed by FACS.

Data set [5] deals with Dengue-2. The data set is described as follows: Dengue-2 Fluorescent Foci Assay. The data set is classed as cell-based. The note with it: FIG. 19; 20 μM. The method, then:
Fluorescent Foci Assay: Vero cells were seeded for 24 h pre-infection in 96-well plates. Cells were exposed to Dengue-2 in the presence of increasing concentrations of peptide (or DMSO as control). Viruses and peptide were washed away 2 h post-infection. Supernatants were collected every 3 days post-infection and added to fresh Vero cells for fluorescent foci assay. Newly infected Vero cells were fixed with 4% formaldehyde after 3 days. Cells were then stained with Dengue Env antibodies followed by Alexa-fluor dye conjugated secondary antibodies. Foci were counted using a fluorescent microscope.
Fluorescent Foci Assay. Vero cells were seeded for 24 hours pre-infection in 96-well plates. Cells were exposed to Dengue-2 in the presence of increasing concentrations of peptide (or DMSO as control). Viruses and peptide were washed away 2 hours post-infection. Supernatants were collected every 3 days post-infection and added to fresh Vero cells for fluorescent foci assay. Newly infected Vero cells were fixed with 4% formaldehyde after 3 days. Cells were then stained with antibodies directed to the Dengue Envelop protein followed by Alexa-fluor dye conjugated secondary antibodies. Foci were counted using a fluorescent microscope.

For data set [6], the system named is Dengue-2. The data set is described as follows: Dengue-2 infection of Vero cells, Enzyme-linked Immunosorbent Assay. The data set is classed as cell-based. The note with it: 1.25 μM, 5 days.
Another data set concerns JFH-1 virus. Briefly: Interferon treatment of Huh-7.5.1 cells before JFH-1 infection. The data set is classed as cell-based, Hepatitis C virus (JFH-1). The note with it: 5, 50 and 500 IU/mL; Huh-7.5.1, MOI 0.3; 3 days.
The subject of data set [7] is HCV. The data set is described as follows: Median effective concentration (EC50) by intracellular HCV RNA RT-QPCR. The class given is cell-based, Hepatitis C virus (JFH-1). Particulars: Huh-7.5.1 cells, MOI 0.1. The method, then:
(§1) To determine the median effective concentration (EC50) of peptide #1, peptide stock solution (3.6 mM in DMSO) was serially 2-fold diluted in DMSO. An aliquot of peptide from each dilution was then diluted 1:100 in complete growth medium and mixed with equal volume of virus supernatant. The virus-peptide mixture was then used to infect Huh-7.5.1 cells (MOI=0.1). After adsorption for 4 hours at 37° C., the virus-peptide inoculum was removed. The cells were washed 2 times, overlaid with 120 μL fresh growth medium and incubated at 37° C. for 3 days. Cells were lysed and subjected to RNA analysis. The HCV RNA transcript level was measured by real time RT-QPCR and normalized to cellular GAPDH levels. The inhibition of HCV infection was calculated by comparing the intracellular HCV RNA transcript between the peptide treatment and solvent control.
as §1, with “(EC50) of the L- and D-form” for “(EC50)”, “serially diluted” for “serially”, “2-fold” for “2-fold diluted”

A short description of data set [8]: Serum stability of L- and D-type peptides (10% FBS, 37° C., antiviral readout). The class given is in vitro ADME. Particulars: within 1 hour. The source says: Peptides composed of L-amino acids are susceptible to proteolysis, which could shorten their half-life and, thus, their biological activity. To examine this possibility and to determine if specific peptide-viral protein interactions mediate antiviral activity, peptide 1 was synthesized using all D-amino acids, purified to >95% homogeneity, and its antiviral activity and serum stability were compared with a similarly pure preparation of the L-type version of peptide #1. Both L- and D-type peptides were diluted 1:100 in complete growth medium (10% FBS) and mixed with an equal volume of viral supernatant.
In addition, to compare the serum stability of the L- and D-type peptides, the diluted peptide was incubated at 37° C. for 1 hour, 2 hours and 4 hours before mixing with viral supernatant. The virus-peptide mixture was then used to infect Huh-7.5.1 cells (MOI=0.1). After adsorption for 4 hours at 37° C., the virus-peptide inoculum was removed. The cells were washed 2 times, overlaid with 120 μL fresh growth medium and incubated at 37° C. for 3 days. Cells were lysed and subjected to RNA analysis. The HCV RNA transcript level was measured by real time RT-QPCR and normalized to cellular GAPDH levels. […] Thus, in addition to low immunogenicity and possible oral bioavailability, peptides composed of D-amino acids have the potential therapeutic advantage of enhanced serum stability.

A short description of another data set: MTT cytotoxicity assay. The data set is classed as cell-based. Particulars: human, hepatocyte cell lines, read-out: LD50 (MTT cytotoxicity). The method, then: Peptide cytotoxicity was measured by MTT cytotoxicity assay based on the protocol provided in the ATCC MTT assay kit (Cat #30-1010K). In brief, 5000-10,000 cells were seeded per well in a 96 well plate. Following overnight growth, 100 μL fresh medium plus 20 μL of 2-fold serially diluted peptide was added. Media without peptides was added to at least 3 wells as untreated controls. The cells were then incubated for 72 hours at 37° C., 5% CO2. After this incubation, 1/10 volume of MTT solution ([…] in PBS) was added to each well, and the cells were returned to the incubator. Two hours later, the medium was removed, 150 μL DMSO was added to dissolve the purple precipitate formazan, and the plate was shaken at 150 rpm for 10 minutes. Absorbance at 570 nm less background at 670 nm is a reliable measure of […]. Cytotoxicity (LD50) of individual peptides was defined as the peptide concentration that caused 50% cell death.

Data set [9] is described as follows: Preliminary in vivo toxicity in mice. Here is the method:
As a preliminary measurement of the in vivo cytotoxicity of the peptides 1, 2 and 3 (see Table 4) a group of three mice (BALB/c mice, 7 weeks old, about 23 g) were each injected with 92 μg L-type peptide 1 ( ˜4 mg/kg) in 200 μL PBS (spun 14,000 rpm for 3 minutes before injection). In the control group, each of three mice was given 200 μL PBS containing 5% DMSO. The mice were monitored for acute toxicity during the first 3 hours after injection.
No change in appearance, activity or behavior was observed. The mice were then weighed on days 0, 3, 5, 7 and 10. Peptide-injected mice gained weight at the same rate as the controls.

In a further data set the test system is Huh-7.5.1 cells. The data set is described as follows: Toxicity on Huh-7.5.1 cells incubated with peptides.

Procedure for JFH-1 virus: The viral inoculum was removed 4 hours later and the cells were further cultured with interferon for 3 days. At that time cells were harvested, RNA was isolated and analyzed by real-time RT-PCR to determine the intracellular HCV RNA levels. Bars represent intracellular HCV RNA levels expressed as a % of the levels obtained in the control infections.
Interferon treatment. […] The inoculum was removed after 3 hours of incubation at 37° C., and fresh DMEM supplemented with the indicated doses of IFN was added to the cells. The efficiency of the infection was monitored 72 hours later by quantitative RT-PCR.

Consider LRDIWDWICEVLSDFK [^N-16mer], for which the “Focus Reduction (72 h)” value in the data set with HCV [1] is given as 125. Moreover, the “Fold Inhibition on HCV RNA (24 h)” value in the data set on HCV [2] (24 h) was determined as 0.7 fold. Also, the “Fold Inhibition on HCV RNA (72 h)” value in the data set on HCV [2] (72 h) is given as 0.6 fold. The “Inhibition of Dengue Infection, α-Capsid 9A7” value with Dengue-2 [3] (1.25 μM) came to 12.82%; in the data set with Dengue-2 [3] (5 μM), 16.01%; in the data set with Dengue-2 [3] (20 μM) it was 82.2%. The “Inhibition of Dengue Infection, α-DEN ENV” value was 33.64% with Dengue-2 [3] (5 μM), 74.83% with Dengue-2 [3] (20 μM) and 10.24% with Dengue-2 [6]. In addition, in the data set on Dengue-2 [3] (FIG. 17, 20 μM), the “Inhibition of Dengue viral infection as detected by ELISA” value is recorded as “about 84%”. In addition, the “Inhibition of Dengue viral infection as detected by FACS” value in the data set with Dengue-2 [4] (FIG. 18) is “about 80%”. For the same compound, in the data set with Dengue-2 [5], the “Inhibition of Dengue viral infection by immunofluorescence assay” value is “about 90%”.

As for “IFNγ: human IFNγ (PBL Biomedical Lab, Piscataway, N.J.)”, the “Inhibition of HCV infection by interferons” value in the data set with JFH-1 virus was “efficiently inhibit HCV infection”.

What is called EC50 is the concentration needed to bring the measured effect to its halfway point. In the case of `CC[C@H](C)[C@H](NC(=O)[C@H](CC(=O)O)NC(=O)[C@H](CCCNC(=N)N)NC(=O)[C@H](CC(C)C)NC(=O)[C@H](Cc1c[nH]c2ccccc12)NC(=O)[C@@H](N)CO)C(=O)N[C@@H](Cc1c[nH]c2ccccc12)C(=O)N[C@@H](CC(=O)O)C(=O)N[C@@H](Cc1c[nH]c2ccccc12)C(=O)N[C@H](C(=O)N[C@@H](CS)C(=O)N[C@@H](CCC(=O)O)C(=O)N[C@H](C(=O)N[C@@H](CC(C)C)C(=O)N[C@@H](CO)C(=O)N[C@@H](CC(=O)O)C(=O)N[C@@H](Cc1ccccc1)C(=O)N[C@@H](CCCCN)C(=O)O)C(C)C)[C@@H](C)CC` [Peptide 1], the EC50 with HCV [7] (FIG. 12B-C, 3 days, read-out: EC50 of the L- and D-forms of peptide 1) was ~1000 nM; with HCV [7] (peptide with virus 4 hours, HCV RNA after 3 days, listed as peptide 1, read-out: EC50 against HCV infection) it was 300 nM; in the data set on HCV [7] (peptide with virus 4 hours, HCV RNA after 3 days, listed as peptide #1, read-out: EC50 against HCV infection), ~300 nM; in the data set with HCV [7] (peptide with virus 4 hours, HCV RNA after 3 days, read-out: EC50 against HCV infection), 289 nM. Besides, the “Antiviral activity lost on incubation in 10% FBS at 37° C.” value in data set [8] is “approximately 95%”. Further, the CC50 at 72 h worked out at 26700 nM in “MTT cytotoxicity assay” (with FBS) and 3800 nM in the data set “MTT cytotoxicity assay” (without FBS). Moreover, in data set [9] (92 μg ( ˜4 mg/kg) in 200 μL PBS, acute toxicity first 3 hours, weight to day 10), the “In vivo toxicity observation” value is “Peptides 1, 2 and 3 are Nontoxic in C57BL/6 Mice”. The “Weight(g) (d.0)” value in data set [9] (day 0, ˜4 mg/kg injected) worked out at 22.2 g. Moreover, the “Weight(g) (d.3)” value in data set [9] (day 3) was determined as 22.3 g. The “Weight(g) (d.5)” value in data set [9] (day 5) is given as 22.8 g. Also, in data set [9] (day 7), the “Weight(g) (d.7)” value turned out to be 23.1 g. Also, the “Weight(g) (d.10)” value in [9] (day 10) worked out at 23.5 g. For the same compound, the “% of Dead cells PI” value in the data set on Dengue-2 [4] (propidium iodide staining, Vero cells 3 days post-infection) came to 1.88%. In the data set on Huh-7.5.1 cells, the “Evidence of toxicity / cytotoxicity” value is given as “without evidence of cytotoxicity”.
